Test results as given in US7468150B2, “Synthesis of conducto-magnetic polymers as nano-transducers in biosensor design” (Board of Trustees of Michigan State University, priority 2005, dated 2008).
≈ marks a conversion by molar mass, not a printed value.

Legend:
Assay type in all cases: physicochemical
[1] = Conductivities of polymers and nanocomposites in solution (Acorn TDS 5 Meter); conditions: solvent as given in the compound name
Method: In order to characterize […] and related compounds, several methods were utilized. First, the DC SQUID (Superconducting Quantum Interference Device) magnetometer was used to measure magnetization of solid […] after 3 weeks and the […] base (control). Absorbance checks using spectrophotometer were performed on […] in solution. Conductivities in solution of […] were gauged by Acorn® TDS 5 Meter. […] To create β-carotene nanocomposites, the use of an appropriate solvent was crucial. […] Solutions of β-carotene nanocomposites were characterized by absorbance checks and conductivity measurements. […] Mixtures of β-carotene […] various other PANi-derived polymers are attained forming a variety of other composites.

[2] = Degradability of β-carotene in toluene by absorbance over time; conditions: absorbance graphs over several days
Method: (§1) β-carotene nanocomposites: To create β-carotene nanocomposites, the use of an appropriate solvent was crucial. Acetone, toluene, kwik-dri, and tetrahydrofuran (THF) were tested. The solubility of β-carotene in kwik-dri, a non-aromatic industrial solvent similar to toluene, was crudely determined. Solutions of β-carotene nanocomposites were characterized by absorbance checks and conductivity measurements. […] Mixtures of β-carotene with PANi emeraldine salt and various other PANi-derived polymers are attained forming a variety of other composites.

[3] = Solubility of β-carotene in kwik-dri; conditions: crudely determined
Method: as §1

Conductivity [1]: ~0 μS
Conductivity ([1]; listed as Kwik-dri + β-carotene): 0.15 μS
Conductivity ([1]; listed as THF + β-carotene): ~0 μS
Solubility [3]: 500 µg/mL (≈ 931 µM)
SMILES: CC1=C(/C=C/C(C)=C/C=C/C(C)=C/C=C/C=C(C)/C=C/C=C(C)/C=C/C2=C(C)CCCC2(C)C)C(C)(C)CCC1 [β-carotene]
Degradability [2]: degradability in toluene was demonstrated
